{"source": "paper PMC11645267", "about": "“Novel pharmacologic inhibition of lysine-specific demethylase 1 as a potential therapeutic for glioblastoma” (Cancer Gene Therapy, 2024)", "tested_on": "GSC1228", "assay": "Stemness / differentiation marker expression (qPCR, western blot)", "assay_type": "cell-based", "settings": "GSC1228, 5 μM, 96 h", "description": "Super-enhancers consist of enhancer clusters with abundant binding of transcription factors and are highly enriched with H3K27ac marks. The H3K4me2 increased regions included the MYC locus and H3K4me2 de novo regions comprised Nestin and SOX2 loci (Fig. 2F, Supplementary Fig. S5A). These regions were also identified as super-enhancers in GSCs using data from our previous study (Fig. 2F). Compared to the large increase in H3K4me2 in these regions, changes in H3K4me3 were subtle after S2172 treatment (only 2582 regions were acquired modification) (Fig. 2C). Increasing the me2/me3 ratio at H3K4 is associated with reduced gene expression.\nA mRNA expression of stem cell marker genes following 96 h treatment of GSC1228 with S2172 (5 μM). The y-axis indicates the expression change relative to DMSO-treated cells. Error bar indicates the SD. *P < 0.05. B Left panel, western blot analysis of MYC, Nestin, and SOX2 after treatment of GSC1228 with either DMSO or S2172 (5 μM) for 96 h. β-actin (ACTB) was used as the loading control. Right panel, Quantification of band signal intensities from the western blot. C mRNA expression of the differentiation marker gene, GFAP, following treatment of GSC1228 with S2172 (5 μM) for 96 h. The y-axis indicates the expression change relative to DMSO-treated cells. Error bar indicates the SD. D PARP cleavage ratio after treatment of GSC1228, GSC222, and GSC316 with S2172 (5 μM). The ratio was calculated by dividing the cleaved-PARP band intensity by the full length-PARP band intensity. Error bar indicates the SD. *P < 0.05. E Representative Western blot results of RAPR after treatment of GSC1228, GSC222, and GSC316 with either DMSO or S2172 (5 μM) for 96 h. The full length-PARP band (106 kDa) and cleaved PARP band (89 kDa) are shown. β-actin (ACTB) was used as the loading control. n = 4. […]\ninstructions. For GSC cells, the CellTiter-Glo 3D Viability Assay (Promega, Madison, WI, USA) was used to measure the living cells. All proliferation experiments were repeated […]\nThe density of bands was quantified using ImageJ software (https://imagej.nih.gov/ij/). […]", "data": [{"smiles": "NC1CCC(NC2CC2c2cc(F)cc(F)c2OCc2ccccc2)CC1", "note": "(stereo not drawn) [S2172]", "values": [{"measurement": "mRNA level of stemness marker genes MYC, Nestin, SOX2", "result": "significantly downregulated"}, {"measurement": "protein level of MYC, Nestin, SOX2", "result": "tended to be downregulated"}, {"measurement": "transcription of astrocytic marker GFAP", "result": "did not transcriptionally induce"}]}]}
